# Measured values reported in the supplement of paper PMC10733146.
# Experiments:
# Experiment in all cases: viability relative to DMSO control (fraction); higher = less drug effect (more viable cells)
# Conditions in all cases: 48 h
# [1] = tested on: primary AML patient cells (S006)
# In short: (§1)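 Viability is given as CellTiter-Glo luminescence relative to the median of 16 inner DMSO wells. Fresh or cryopreserved primary mononuclear tumour cells from blood, bone marrow (both Ficoll-isolated) or processed lymph node were plated at 4 × 10^4 cells per well in 384-well plates against five pre-plated compound concentrations, one well each. Incubation lasted 48 h at 37 °C and 5% CO2 in RPMI-1640 with penicillin/streptomycin, L-glutamine and human serum.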
# [2] = tested on: primary ALL patient cells (S088)
# In short: as §1
# [3] = tested on: primary CLL patient cells (S043)
# In short: as §1
# [4] = tested on: primary CLL patient cells (S031)
# In short: as §1
# [5] = tested on: primary DLBCL patient cells (S076)
# In short: as §1
# [6] = tested on: primary AML patient cells (S072)
# In short: as §1
# [7] = tested on: primary MCL patient cells (S063)
# In short: as §1
# [8] = tested on: primary AML patient cells (S089)
# In short: as §1
# [9] = tested on: primary AML patient cells (S060)
# In short: as §1
# [10] = tested on: primary T-NHL patient cells (S058)
# In short: as §1
# [11] = tested on: primary AML patient cells (S071)
# In short: as §1
# [12] = tested on: primary AML patient cells (S079)
# In short: as §1
# [13] = tested on: primary DLBCL patient cells (S049)
# In short: as §1
# [14] = tested on: primary AML patient cells (S055)
# In short: as §1
# [15] = tested on: primary AML patient cells (S056)
# In short: as §1
# [16] = tested on: primary ALL patient cells (S048)
# In short: as §1
# [17] = tested on: primary DLBCL patient cells (S082)
# In short: as §1
structure (smiles),measurement,setting,value
Oc1ccc(/C=C/c2cc(O)cc(O)c2)cc1 [Resveratrol],viability,[1]; 0.024 µM,0.862
same,viability,[1]; 0.12 µM,0.866
same,viability,[1]; 0.6 µM,0.845
same,viability,[1]; 3 µM,0.872
same,viability,[1]; 15 µM,0.804
same,viability,[2]; 0.024 µM,0.427
same,viability,[2]; 0.12 µM,0.459
same,viability,[2]; 0.6 µM,0.489
same,viability,[2]; 3 µM,0.477
same,viability,[2]; 15 µM,0.426
same,viability,[3]; 0.024 µM,0.825
same,viability,[3]; 0.12 µM,0.864
same,viability,[3]; 0.6 µM,0.821
same,viability,[3]; 3 µM,0.799
same,viability,[3]; 15 µM,0.711
same,viability,[4]; 0.024 µM,0.761
same,viability,[4]; 0.12 µM,0.766
same,viability,[4]; 0.6 µM,0.744
same,viability,[4]; 3 µM,0.67
same,viability,[4]; 15 µM,0.553
same,viability,[5]; 0.024 µM,0.961
same,viability,[5]; 0.12 µM,0.963
same,viability,[5]; 0.6 µM,0.955
same,viability,[5]; 3 µM,0.94
same,viability,[5]; 15 µM,0.882
same,viability,[6]; 0.024 µM,1.07
same,viability,[6]; 0.12 µM,0.797
same,viability,[6]; 0.6 µM,0.816
same,viability,[6]; 3 µM,0.798
same,viability,[6]; 15 µM,0.687
same,viability,[7]; 0.024 µM,0.862
same,viability,[7]; 0.12 µM,0.858
same,viability,[7]; 0.6 µM,0.863
same,viability,[7]; 3 µM,0.854
same,viability,[7]; 15 µM,0.825
same,viability,[8]; 0.024 µM,0.819
same,viability,[8]; 0.12 µM,0.652
same,viability,[8]; 0.6 µM,0.672
same,viability,[8]; 3 µM,0.53
same,viability,[8]; 15 µM,0.549
same,viability,[9]; 0.024 µM,0.964
same,viability,[9]; 0.12 µM,0.99
same,viability,[9]; 0.6 µM,0.946
same,viability,[9]; 3 µM,0.918
same,viability,[9]; 15 µM,0.893
same,viability,[10]; 0.024 µM,0.917
same,viability,[10]; 0.12 µM,0.998
same,viability,[10]; 0.6 µM,0.957
same,viability,[10]; 3 µM,0.895
same,viability,[10]; 15 µM,0.948
same,viability,[11]; 0.024 µM,0.774
same,viability,[11]; 0.12 µM,0.734
same,viability,[11]; 0.6 µM,0.732
same,viability,[11]; 3 µM,0.688
same,viability,[11]; 15 µM,0.591
same,viability,[12]; 0.024 µM,0.838
same,viability,[12]; 0.12 µM,0.767
same,viability,[12]; 0.6 µM,0.792
same,viability,[12]; 3 µM,0.718
same,viability,[12]; 15 µM,0.736
same,viability,[13]; 0.024 µM,0.849
same,viability,[13]; 0.12 µM,0.846
same,viability,[13]; 0.6 µM,0.826
same,viability,[13]; 3 µM,0.732
same,viability,[13]; 15 µM,0.711
same,viability,[14]; 0.024 µM,0.867
same,viability,[14]; 0.12 µM,0.931
same,viability,[14]; 0.6 µM,0.888
same,viability,[14]; 3 µM,0.83
same,viability,[14]; 15 µM,0.851
same,viability,[15]; 0.024 µM,0.714
same,viability,[15]; 0.12 µM,0.966
same,viability,[15]; 0.6 µM,0.645
same,viability,[15]; 3 µM,0.596
same,viability,[15]; 15 µM,0.466
same,viability,[16]; 0.024 µM,0.621
same,viability,[16]; 0.12 µM,0.574
same,viability,[16]; 0.6 µM,0.479
same,viability,[16]; 3 µM,0.637
same,viability,[16]; 15 µM,0.681
same,viability,[17]; 0.024 µM,0.79
same,viability,[17]; 0.12 µM,0.776
same,viability,[17]; 0.6 µM,0.828
same,viability,[17]; 3 µM,0.871
same,viability,[17]; 15 µM,0.954
